Patent US20210170033A1, “NOVEL CONJUGATES OF A PHARMACEUTICAL AGENT AND A MOIETY CAPABLE OF BINDING TO A GLUCOSE SENSING PROTEIN” (SANOFI, priority 2017, published 2021)

system: A2780 cells; assay: Deoxy-glucose uptake assay in A2780 cells (14C 2-deoxy-D-glucose transport); format: cell-based; conditions: Homo sapiens, 20 min; inhibition of 14C 2-deoxy-D-glucose transport into A2780 cells; 20 min compound incubation; read-out: IC50
Experimental: 1. Deoxy-Glucose Uptake Assay in A2780 Cells:
For measurement of ^14C 2-deoxy-D-glucose transport into A2780 cells, cells were seeded in 96-well plates (Cytostar-T Plates Perkin Elmer, 70,000 cells/180 μl/well) in medium complete (RPMI1640+Glutamax (Life technologies #61870)) and grown for 48 hours. After 48 h, cells were washed once with 180 μL KRB (Krebs Ringer Bicarbonate) buffer, and stimulated in a dose dependent manner by adding 10 μL of test compound dilution 0-1.1 mM (11 times higher concentration than final) or 10 μL of 1.1 mM Cytochalasin B solution as negative control, to 90 μL KRB buffer and incubated for 20 minutes. After compound stimulation, the transport of ^14C 2-deoxy-D-glucose was started by adding of 50 μL 2-^14C[U] 2-deoxy-D-glucose solution (109.1 μM 2-deoxy-D-glucose cold and 33 μM 2-^14C[U] 2-deoxy-D-glucose 0.1 μCi/well) for 20 minutes. Transport was stopped by adding 50 μL/well 96 μM Cytochalasin B solution. Plates were measured in a 96-well Wallac Microbeta device. The cpm (counts per minute) values were used to determine the % inhibition values for the test compounds within each experiment. In a first step, the mean background value generated by Cytochalasin B (a potent glucose transporter inhibitor) treated cells, was subtracted from the mean values of the treated cells. All mean values were obtained from triplicates. For %-Inhibition results, the mean value of the untreated cells (just KRB) was set as 100%. All other mean values were calculated to this relation. IC50 were obtained by regression analysis of dose response curve with 7 or 14 concentrations, respectively, for each compound.

| IC50 [µM] | Structure (SMILES) |
| --- | --- |
| 5.3 | COC(=O)COc1ccc(COc2cc(OC)c(C(=O)N[C@H]3[C@@H](OC)O[C@H](CO)[C@@H](O)[C@@H]3O)cc2Cl)cc1 (relative stereo) [Example 386] |
| 1.8 | COc1cc(OCc2ccc(/C=C/C(=O)NCCCCCC(=O)OC(C)(C)C)cc2)c(Cl)cc1C(=O)N[C@H]1[C@@H](OC)O[C@H](CO)[C@@H](O)[C@@H]1O (relative stereo) [Example 392] |
| 8.1 | COc1cc(OCc2nc3ccccc3n2CCCCCCCC(=O)O)c(Cl)cc1C(=O)N[C@H]1[C@@H](OC)O[C@H](CO)[C@@H](O)[C@@H]1O (relative stereo) [Example 482] |
| 67.3 | C=CCO[C@@H]1O[C@H](COC(=O)c2ccc(OCc3ccccc3)c(OC)c2)[C@@H](O)[C@H](O)[C@H]1O [Example 11] |
| 62.4 | CO[C@@H]1O[C@H](COC(=O)c2cc(C)c(OCc3ccccc3)c(C)c2)[C@@H](O)[C@H](O)[C@H]1O [Example 19] |
| 40.7 | CO[C@@H]1O[C@H](COC(=O)c2cc(OCc3ccccc3)ccc2C)[C@@H](O)[C@H](O)[C@H]1O [Example 34] |
| 43.2 | COc1cc(C(=O)OC[C@H]2OC(O)[C@H](O)[C@@H](O)[C@@H]2O)cc(Cl)c1OCCc1ccccc1 (stereo partly drawn) [Example 56] |
| 29.2 | Cc1ccc(OCc2ccccc2)cc1C(=O)OC[C@H]1OC(O)[C@H](O)[C@@H](O)[C@@H]1O (stereo partly drawn) [Example 61] |
| 52.3 | CO[C@H]1O[C@H](CO)[C@@H](O)[C@H](O)[C@H]1OC(=O)c1cc(Cl)cc(OCc2ccccc2)c1 [Example 74] |
| 20.1 | C#CCCC(=O)Nc1cccc(COc2c(Cl)cc(C(=O)O[C@@H]3C(O)[C@H](O)[C@@H](CO)O[C@@H]3OC)cc2OC)c1 (stereo partly drawn) [Example 78] |
| 22.2 | COc1cccc(COc2c(Cl)cc(C(=O)O[C@H]3[C@@H](OC)O[C@H](CO)[C@@H](O)[C@@H]3O)cc2OC)c1 [Example 88] |
| 13.7 | Cc1ccc(OCc2ccccc2)cc1C(=O)OC[C@H]1OC(O)[C@H](O)[C@@H](O)[C@H]1O (stereo partly drawn) [Example 102] |
| 10 | CO[C@H]1O[C@H](CO)[C@@H](O)[C@H](O)[C@H]1OC(=O)c1cc(Cl)c(OCc2nccn2Cc2ccccc2)c(Cl)c1 [Example 117] |
| 5.6 | COc1ncc(COc2c(Cl)c(C)c(C(=O)O[C@H]3[C@@H](OC)O[C@H](CO)[C@@H](O)[C@@H]3O)c(OC)c2Cl)cc1Cl [Example 126] |
| 32.7 | COc1cc(C(=O)O[C@H]2[C@@H](O)[C@@H](CO)O[C@H](OC)[C@@H]2O)cc(Cl)c1OCc1nc2ccccc2n1C(C)C [Example 127] |
| 76.4 | COc1cc(OCc2ccccc2)cc(C(=O)OC[C@H]2O[C@@H](OC)[C@H](O)[C@@H](O)[C@@H]2O)c1 [Example 136] |
| 45.6 | CO[C@@H]1O[C@H](COC(=O)c2cc(OCc3ccccc3)c3cc[nH]c3c2)[C@@H](O)[C@H](O)[C@H]1O [Example 145] |
| 18.5 | COc1cc(C(=O)OC[C@H]2O[C@@H](OC)[C@H](O)[C@@H](O)[C@@H]2O)cc(Cl)c1OCc1nc2ccccc2n1C(C)C [Example 151] |
| 38 | COc1cc(C(=O)N[C@H]2[C@@H](OC)O[C@H](CO)[C@@H](O)[C@@H]2O)cc(Cl)c1OCc1ccccc1 [Example 179] |
| 17.2 | COc1c(Cl)c(OCc2cccc(CNC(=O)OC(C)(C)C)c2)c(Cl)c(C)c1C(=O)N[C@H]1[C@@H](OC)O[C@H](CO)[C@@H](O)[C@@H]1O [Example 181] |
| 6 | C#CCCCn1c(COc2c(Cl)cc(C(=O)O[C@H]3[C@@H](OC)O[C@H](CO)[C@@H](O)[C@@H]3O)cc2OC)nc2ccccc21 [Example 186] |
| 10.2 | COc1ccc(COc2c(Cl)cc(C(=O)O[C@H]3[C@@H](OC)O[C@H](CO)[C@@H](O)[C@@H]3O)cc2OC)cc1 [Example 190] |

same assay, conditions: Homo sapiens, A2780, 20 min

| Structure (SMILES) | IC50 [µM] |
| --- | --- |
| COc1cc(C(=O)OC[C@H]2O[C@@H](OCC[Si](C)(C)C)[C@H](O)[C@@H](O)[C@@H]2O)cc(Cl)c1OCCc1ccccc1 [Example 28] | 82.5 |
| COc1cc(C(=O)OC[C@H]2O[C@@H](OCC[Si](C)(C)C)[C@H](O)[C@@H](O)[C@@H]2O)cc(Cl)c1OC(=O)c1ccccc1 [Example 36] | 47.4 |
